Source: patent publication US20040039048A1, “Therapy with cannabinoid compounds for the treatment of brain tumors” (priority 2000, published 2004)
Entries after “also recorded” stand apart in the source; their conditions may differ. Read-outs that look alike come from different tables or passages of the source.

Experiments:
[1] = system: C6 glioblastoma cells; assay: Viability of C6 glioblastoma culture cells (MTT method); type: cell-based; settings: for IC50: after 5 days of exposure, n=4, read-out: concentration reducing viability of C6 glioblastoma by 50%; for prevention of cell death induced by THC, the two antagonists SR141716 and SR144528 jointly added: 1 μM SR141716 and 1 μM SR144528, 5 days
Protocol: Experiments were conducted with the object of obtaining a pharmacological characterization of cannabinoid-induced death of C6 glioblastoma culture cells.
C6 glioblastoma cells were cultivated at 37° C. and 5% CO2 in F-12 medium supplemented with calf fetal serum at 10%. 24 h before the start of the experiment the cells were transferred to an F-12 medium free of serum and supplemented with insulin (5 μg/ml), transferrine (10 μg/ml), sodium selenite (5 μg/ml) and delipidized and dialyzed BSA (10 mg/ml). The medium was renovated every 48 h and the cell viability was determined by the MTT method (Sanchez, C., Galve-Roperh, I., Canova, C., Brachet, P. & Guzman, M., op cit.).

[2] = system: C6 glioblastoma cells; assay: C6 glioblastoma cells inoculated in rat brain; survival and magnetic resonance; type: in vivo, Wistar rats
Protocol: C6 glioblastoma cells were directly inoculated in the brain of Wistar rats and the tumors viewed by magnetic resonance. […] To evaluate the antitumoral potential of the cannabinoids, 12 days after inoculating the cells a group of animals was administered THC or WIN-55, 212-2 for 7 days through a cannula located at the site of inoculation.
Male Wistar rats (250-300 g in body mass) were anaesthetized with 3% isofluorane in an oxygen mixture (0.8 l/min) and protoxide (0.4 l/min). 5×10^8 C6 glioblastoma cells were prepared in 100 μl of saline solution buffered with phosphate (PBS) and supplemented with 0.1% glucose, and stereotaxically injected in the frontal parietal lobule of the right hemisphere (4 mm to the right of bregma, 4.5 mm depth from the cranium) (Izquierdo, M et al., Gene Ther. 2, 66-69, 1995). The rats received dexamethasone (2 mg/l) and tetracycline (75 mg/kg of body weight) in water for 3 days before and 7 days after inoculation of the cells. A thorough monitoring of the tumors was performed by magnetic resonance with the methods described by other authors (Izquierdo, M et al., op cit; Cortés, M. L., de Felipe, P., Martin, V. Hughes, M. A. & Izquierdo, M. Gene Ther. 5, 1499-1507, 1998).
The administration of cannabinoids to rats began 12 days after inoculation of the cells. At this time the average size of the tumors was 70 mm^3 (interval 25-100 mm^3) as estimated by magnetic resonance (Izquierdo, M et al., op cit; Cortés, de Felipe, Martin, Hughes & Izquierdo, M, op cit.). Cannabinoids were administered by a cannula placed at the place of inoculation of the tumor and attached to the cranium by dental cement; a small stainless steel screw anchored the cannula and the dental cement. The cannula was subcutaneously connected by a catheter to an osmotic mini-pump (Alzet 2001) which operated at a flow of 1 μl/h for 7 days. The osmotic pump was filled with 500-2500 μg of THC or 50-250 μg of WIN-55,212-2 in 200 μl of PBS supplemented with 5 mg/l of bovine serum albumin (BSA), delipidized and dialyzed.

[3] = system: C6 glioblastoma cells; assay: C6 glioblastoma cells inoculated subcutaneously in immunodeficient RAG-2-/- mice; tumor size; type: in vivo; settings: 500 μg of THC or 50 μg of WIN-55,212-2 per day for 7 days, caliper, P<0.01 Student t test
Protocol: In order to discern whether the antiproliferative action of cannabinoids was due to a direct effect on the tumoral cells or to an indirect effect mediated by an immune response, C6 glioblastoma cells were inoculated subcutaneously in mice with a deficiency of recombinase RAG-2 (RAG-2^-/-), which lack mature T and B lymphocytes (Shinkai et al. Cell 68, 855-867, 1992).
Tumors were induced in RAG-2^-/- […] by subcutaneous inoculation of 5×10^6 C6 glioblastoma cells in 100 μl of PBS supplemented with 0.1% glucose. […] The tumor sizes were measured by a caliper and their volume calculated according to (4π/3)×(width/2)^2×(length/2). […] In FIG. 4b are shown examples of tumor bearing mice and tumors dissected after treatment with or without cannabinoids for 7 days.

[4] = fraction of treated animals, 7 days through cannula from day 12

Molecule	IC50 ([1]; 120 h)	IC50 [1]	prevention of cell death induced by THC, the two antagonists SR141716 and SR144528 jointly added ([1]; 1 μM THC)	size of tumors versus control animals [3]	further results
CCCCCCC(C)(C)c1cc(O)c2c(c1)OC(C)(C)[C@@H]1CC=C(CO)C[C@@H]21 [HU-210]	10 nM	–	–	–	–
CCCCCCC(C)(C)c1ccc([C@@H]2C[C@H](O)CC[C@H]2CCCO)c(O)c1 [CP-55,940]	–	45 nM	–	–	–
Cc1c(C(=O)NN2CCCCC2)nn(-c2ccc(Cl)cc2Cl)c1-c1ccc(Cl)cc1 [SR141716]	–	–	prevented	–	prevention of cell death induced by THC, antagonist added separately ([1]; 1 μM THC, 1 μM antagonist, 5 days): Neither
Cc1c(C(=O)c2cccc3ccccc23)c2cccc3c2n1[C@H](CN1CCOCC1)CO3 [WIN-55,212-2]	–	20 nM	–	much smaller	survival time ([2]; days after inoculation, in the responding animals, cannabinoid for 7 days through cannula at site of inoculation from day 12, untreated died 12-18 days): 19 to 43 days; animals with increased survival time [2, 4]: 4/15; animals with tumor completely eradicated [2, 4]: 5/15; size of tumors versus control animals ([3]; 212-2): extraordinarily smaller
SR144528	–	–	prevented	–	–
CCCCCc1cc(O)c2c(c1)OC(C)(C)[C@@H]1CCC(C)=C[C@@H]21 [THC, Δ^9-tetrahydrocannabinol]	480 nM	–	–	extraordinarily smaller; also recorded: much smaller	induction of death of C6 glioblastoma cells ([1]; 1 μM THC, 5 days, n=6): capable of inducing the death
